# In article PMC6657668, “Porcine Beta-Defensin 2 Provides Protection Against Bacterial Infection by a Direct Bactericidal Activity and Alleviates Inflammation via Interference With the TLR4/NF-κB Pathway” (Frontiers in Immunology, 2019):
# Where a SMILES comes first, the peptide text is derived from it.
# Columns and labels:
# [1] = system: S. Typhimurium; parameters: species or system Salmonella Typhimurium 14028 (in mice); settings: mouse, in vivo, po
# [2] = system: ERK; assay: Western blot of ERK and p-ERK in RAW 264.7 cells; type: cell-based, mouse; settings: LPS 30 min with various concentrations of PBD-2 (Figure S4)
# Protocol: […] […] Proteins were firstly analyzed with SDS-PAGE and then electro-transferred onto a PVDF (#ISEQ00010, Biosharp®, Beijing, China) membrane. The PVDF membrane was blocked with 1/100 bovine serum albumin (BSA, #V900933-100G, VETEC, Sigma-Aldrich®, St. Louis, MO, USA) at 10 μg/ml at 37°C for 2 h, washed with PBST five times, incubated with the antisera against p-p65 (# 3033), p65 (# 4764), p-ERK (# 4370), ERK (# 4695), p-p38 (# 4511), p38 (# 8690), p-JNK (# 4668), JNK (# 9258) (Cell Signaling Technology®, Danvers, MA, USA), and β-actin (# AA128, Beyotime®, Shanghai, China) at 2 μg/ml at 37°C for 2 h and washed five times again. The PVDF membrane was subsequently incubated with 1 μg/ml secondary antibody, namely, goat anti-rabbit IgG (# 7074S, Cell Signaling Technology®, Danvers, MA, USA), at 37°C for 2 h and washed five times. Lastly, immune-reactive bands were detected using an ECF Western blot system (Tanon 5200 Multi, Shanghai, China) and quantified using AlphaImager 2200 analysis software.
# Supplementary file Image_4.TIF: Figure S4 Effects of PBD-2 on ERK, p38, and JNK signaling pathways. Cells were treated with LPS for 30 min with or without various concentrations of PBD-2. The expression levels of ERK, p-ERK, p38, p-p38, JNK, p-JNK, and β-actin were examined by Western blot (A). The signal intensity of each band was quantified (B–D). Click here for additional data file.
# [3] = system: JNK; assay: Western blot of JNK and p-JNK in RAW 264.7 cells; type: cell-based, mouse; settings: LPS 30 min with various concentrations of PBD-2 (Figure S4)
# Protocol: RAW 264.7 cells were treated with LPS (1 μg/ml) alone or together with PBD-2 (10 μg/mL). […] Proteins were firstly analyzed with SDS-PAGE and then electro-transferred onto a PVDF (#ISEQ00010, Biosharp®, Beijing, China) membrane. The PVDF membrane was blocked with 1/100 bovine serum albumin (BSA, #V900933-100G, VETEC, Sigma-Aldrich®, St. Louis, MO, USA) at 10 μg/ml at 37°C for 2 h, washed with PBST five times, incubated with the antisera against p-p65 (# 3033), p65 (# 4764), p-ERK (# 4370), ERK (# 4695), p-p38 (# 4511), p38 (# 8690), p-JNK (# 4668), JNK (# 9258) (Cell Signaling Technology®, Danvers, MA, USA), and β-actin (# AA128, Beyotime®, Shanghai, China) at 2 μg/ml at 37°C for 2 h and washed five times again. The PVDF membrane was subsequently incubated with 1 μg/ml secondary antibody, namely, goat anti-rabbit IgG (# 7074S, Cell Signaling Technology®, Danvers, MA, USA), at 37°C for 2 h and washed five times. Lastly, immune-reactive bands were detected using an ECF Western blot system (Tanon 5200 Multi, Shanghai, China) and quantified using AlphaImager 2200 analysis software.
# Supplementary file Image_4.TIF: Figure S4 Effects of PBD-2 on ERK, p38, and JNK signaling pathways. Cells were treated with LPS for 30 min with or without various concentrations of PBD-2. […] The signal intensity of each band was quantified (B–D). […]
# [4] = system: NF-κB; assay: mRNA level of NF-κB in RAW 264.7 cells (RT-PCR); type: cell-based, mouse; settings: LPS 1 μg/ml with PBD-2 10 μg/mL, 4 h; n = 6
# Protocol: The cDNA of the RAW 264.7 cells treated with LPS (1 μg/ml) alone or together with PBD-2 (10 μg/mL) for 4 h (n = 6 each group) was used as a template by using the primers NF-κB-01 ([…]) and NF-κB-02 ([…]) and the primers GAPDH-01 and GAPDH-02 for the housekeeping gene GAPDH to detect the expression level of NF-κB. The relative expression level of NF-κB is shown as 2^−ΔCt (mean ± SEM), where ΔCt = Ct NF−κB−CtGAPDH. The protocol consisted of 40 replication cycles. The Ct values above 34 cycles were considered non-detectable.
# [5] = molecular target: T1, TLR4 (Mus musculus, UniProt Q9QUK6); assay: Interaction with TLR4, far-Western blot; type: binding; settings: PBD-2 10 μg/ml, 37°C, 2 h
# T1 construct: purchased Cloud-clone, Wuhan, China RPA753Mu01
# Protocol: TLR4 and BSA proteins as a control were subject to SDS-PAGE and electro-transferred onto a PVDF membrane. The PVDF membrane was blocked with 10 μg/ml BSA in PBST at 37°C for 2 h, washed five times with PBST and incubated with PBST that contained 10 μg/ml PBD-2 or 10 μg/ml BSA as a control at 37°C for 2 h. After the membranes were washed, the PVDF membrane was incubated with anti-PBD-2 antisera (with a titer 1:500,000) at 37°C for 2 h and washed five times with PBST. The membrane was then incubated with the secondary antibodies, namely, goat anti-mouse IgG (# AS003, ABclonal®, Wuhan, China), at 37°C for 2 h and washed five times with PBST. Lastly, immune-reactive bands were detected using an ECF Western blot system (Tanon 5200 Multi, Shanghai, China).
# [6] = system: bacteria; settings: ref [11], cited from earlier work
# Excerpt: Another fact is that some vi ...
# [7] = system: dextran sodium sulfate (DSS) in mice; settings: ref [33], cited from earlier work
# Excerpt: The antibiotic resistance of pathogenic bacteria has become a global threat ([30]). Defensins are natural peptides secreted by many species and implicated in resisting bacterial infection ([31]). PBD-2 is one of the defensins expressed in pigs. […] The invasion of S. Typhimurium can increase the expression of PBD-2 in porcine epithelial cells ([32]). […] PBD-2 also improves the growth perf ... || The colitis caused by S. Typhimurium mainly results from intestinal mucosal inflammation after the breakage of intestinal epithelial barrier by pathogens ([26]). […] AMPs have various structures which may lead to their different act ...
# [8] = ref [11]; cited from earlier work
# [9] = system: S. Typhimurium; assay: Spleen and caecum weight ratios of mice infected with S. Typhimurium; settings: PBD-2 expressed in TG mice; oral 2.5 × 10^8 CFU; legend: 24 h post-infection; WT n = 9, TG n = 8
# Protocol: Four infection experiments were conducted to determine the resistance to S. Typhimurium of the TG mice. For body weight measurements, 7 WT and 7 TG mice were orally administered with 2.5 × 10^8 CFU of S. Typhimurium, and the body weight of each mouse was measured on days 1, 2, 3, 4, and 5 after infection. For the detection of the tissue weight ratios, bacterial loads in tissues and tissue lesions after S. Typhimurium infection, 9 WT and 8 TG mice were orally administered with 2.5 × 10^8 CFU of S. Typhimurium. The spleen, caecum and body weights of the mice were weighed at 24 h post-infection. The bacterial loads in the tissues were also measured ([26]). The spleen and caecum were weighed and homogenized in cold PBS at a ratio of 4 ml per gram of tissue and coated plates. The bacterial numbers in the homogenates were counted by serially diluting the homogenates and spreading on plates. Caeca were harvested for histopathological analysis by using the methods described above. The intestinal damage, including epithelial damage, submucosal oedema, and neutrophil aggregation, was observed.
# T1 sequence (Q9QUK6 26-835): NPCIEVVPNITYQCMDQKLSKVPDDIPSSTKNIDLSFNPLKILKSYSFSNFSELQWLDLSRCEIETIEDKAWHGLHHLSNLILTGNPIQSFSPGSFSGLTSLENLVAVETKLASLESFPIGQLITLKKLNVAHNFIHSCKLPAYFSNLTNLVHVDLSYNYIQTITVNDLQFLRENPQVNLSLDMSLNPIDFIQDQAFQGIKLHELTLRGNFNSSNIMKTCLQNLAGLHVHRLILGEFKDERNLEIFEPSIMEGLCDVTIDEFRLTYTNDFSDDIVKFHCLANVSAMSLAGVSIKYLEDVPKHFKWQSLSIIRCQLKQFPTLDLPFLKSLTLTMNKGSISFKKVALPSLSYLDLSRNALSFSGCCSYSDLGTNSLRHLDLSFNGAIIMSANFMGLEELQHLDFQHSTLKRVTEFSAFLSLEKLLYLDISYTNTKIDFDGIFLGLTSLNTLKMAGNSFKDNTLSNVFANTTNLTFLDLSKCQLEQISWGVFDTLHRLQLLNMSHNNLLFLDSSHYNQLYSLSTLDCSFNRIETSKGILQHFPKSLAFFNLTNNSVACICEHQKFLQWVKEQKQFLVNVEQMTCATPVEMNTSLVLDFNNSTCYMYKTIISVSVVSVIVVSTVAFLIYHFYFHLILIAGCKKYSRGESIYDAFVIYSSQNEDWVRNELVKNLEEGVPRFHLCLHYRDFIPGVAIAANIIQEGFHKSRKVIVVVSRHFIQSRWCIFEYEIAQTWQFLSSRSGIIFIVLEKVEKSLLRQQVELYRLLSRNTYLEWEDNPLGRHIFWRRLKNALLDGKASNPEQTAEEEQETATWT
smiles,measurement,setting,value
"CC[C@H](C)[C@H](NC(=O)[C@@H]1CSSC[C@@H]2NC(=O)[C@@H]3CCCN3C(=O)[C@H](CO)NC(=O)[C@H](Cc3ccccc3)NC(=O)[C@H](CC(N)=O)NC(=O)[C@@H]3CSSC[C@H](NC(=O)[C@H]([C@@H](C)O)NC(=O)CNC(=O)[C@H](CCC(=O)O)NC(=O)[C@H]([C@@H](C)CC)NC(=O)[C@H](CCCNC(=N)N)NC(=O)[C@H](CC(N)=O)NC(=O)[C@H](Cc4ccccc4)NC(=O)[C@H](CC(C)C)NC(=O)[C@@H]4CCCN4C2=O)C(=O)N[C@@H](Cc2ccc(O)cc2)C(=O)N[C@@H](CO)C(=O)NCC(=O)N[C@@H](CCCCN)C(=O)N[C@@H](C)C(=O)N[C@@H](CCCCN)C(=O)N[C@@H](CSSC[C@H](NC(=O)[C@@H](NC(=O)[C@H](Cc2ccc(O)cc2)NC(=O)[C@H](Cc2c[nH]cn2)NC(=O)[C@@H](N)CC(=O)O)[C@@H](C)CC)C(=O)N[C@@H](C)C(=O)N[C@@H](CCCCN)C(=O)N[C@@H](CCCCN)C(=O)NCC(=O)NCC(=O)N[C@@H]([C@@H](C)O)C(=O)N3)C(=O)N1)C(=O)N[C@@H](CCCNC(=N)N)C(=O)O [PBD-2, Porcine beta-defensin 2] (HELM PEPTIDE1{D.H.Y.I.C.A.K.K.G.G.T.C.N.F.S.P.C.P.L.F.N.R.I.E.G.T.C.Y.S.G.K.A.K.C.C.I.R}$PEPTIDE1,PEPTIDE1,5:R3-34:R3|PEPTIDE1,PEPTIDE1,12:R3-27:R3|PEPTIDE1,PEPTIDE1,17:R3-35:R3$$$V2.0; N-terminus and C-terminus assumed)",survival at lower bacterial dose,[1],all the WT and TG mice survived until the end of the experiments
same,survival rate,[1],70%
same,LPS-induced phosphorylation of ERK,[2],"did not affect the LPS-induced phosphorylation of ERK, p38, and JNK"
same,LPS-induced phosphorylation of JNK,[3],"did not affect the LPS-induced phosphorylation of ERK, p38, and JNK"
same,mRNA levels of NF-κB after LPS induction,[4],reduce the mRNA levels of NF-κB after LPS induction (p < 0.01)
same,binding to TLR4 on PVDF membrane,[5],could bind to TLR4
same,"antibacterial activity, concentration dependence",[6]; in vitro,positively related to its concentration
same,bactericidal activity in vitro,[6],high and broad spectrum of bactericidal activity in vitro
same,mucosal damage caused by DSS,[7]; mice,alleviate mucosal damage caused by dextran sodium sulfate (DSS) in mice
same,"DSS-induced inflammation, NF-κB signaling",[7],suppresses the DSS-induced inflammation by suppressing the NF-κB signaling pathway
same,inflammation in DSS-induced colitis,[7],attenuates inflammation in DSS-induced colitis
same,hemolytic activity,[8],limited hemolytic activity
same,"caecum weight ratio (organ weight/body weight), caecal enlargement",[9],the WT mice exhibited more severe splenic atrophy and caecal enlargement compared with the TG mice on day 2 post-infection (p < 0.05)
same,"spleen weight ratio (organ weight/body weight), splenic atrophy",[9],the WT mice exhibited more severe splenic atrophy and caecal enlargement compared with the TG mice on day 2 post-infection (p < 0.05)
